No end group written: not given here.

The subject of the first test is rat spinal motor neurons. Briefly: in vitro rat motor neuron cell survival assay. Type of test: cell-based. The note with it: 10 μg/mL peptide, medium lacking NTFs; surviving motor neurons as percentage of those surviving with NTFs alone (control); mean ± SD of five samples. The procedure: FIG. 1. Illustrates a survival assay of exemplary MNTF peptides on motor neuron survival. Motor neurons were cultured from rat spinal cords and grown in culture for 3 days in the presence of BDNF, GDNF and CNTF. After 3 days, the cells were grown in the absence of the conventional trophic factors but with the indicated MNTF peptides at 10 microgram/ml. After 48 hours the number of live cells was determined. The graph indicates mean+/−SD of five samples (BDNF=Brain derived neurotrophic factor; GDNF=Glial derived neurotrophic factor; CNTF=Ciliary neurotrophic factor).
Purification and culture of motor neurons. Spinal motor neuron cultures were prepared from E14.5 Sprague-Dawley rats (Charles River Labs). Briefly, dissected spinal cords were digested in 0.025% trypsin (Gibco) for 8 min at 37° C. The tissue was transferred to a solution containing L-15 medium (Gibco) supplemented with 2% horse serum (Gibco), insulin (5 μg/ml); putrescine (1×10^-4 M), conalbumin (100 μg/ml), sodium selenite (3×10^-8 M), progesterone (2×10^-8 M), glucose (3.6 mg/ml), penicillin (100 IU/ml), streptomycin (100 μg/ml), DNAse (100 μg/ml) and bovine serum albumin (BSA; 0.4%). […] The layered suspension was centrifuged at 830×g for 15 min. […] The motor neurons medium consists of neurobasal medium (Gibco) supplemented with B27 supplement (Gibco), glutamate (25 μM), 2-mercaptoethanol (25 μM) and 2% horse serum. The motor neurons were plated onto laminin-coated coverslips at a density of 3000 cells/coverslip unless otherwise stated. A cocktail of neurotrophic factors (NTFs: 1 ng/ml BDNF, 100 pg/ml GDNF, 10 ng/ml CNTF) was added at the time of cell seeding. After 24 h in culture, motor neurons were treated by addition of the different analogs diluted in motor neurons medium lacking NTFs.
Survival assay. Spinal motor neurons were prepared from E14.5 rat embryos as described. Cells were cultured in the presence of NTFs for 24 h and viability (VI) was estimated by counting the number of calcein AM-positive cells. For viability studies, motor neurons were cultured in the absence of NTFs with the addition of the analogs or GM6. The percentage of viable motor neurons was calculated by counting the number of neurons.
Statistical analysis. The number of surviving motor neurons for each treatment was expressed as a percentage of the number of motor neurons surviving in the presence of NTFs alone (control). Five dishes were used for each condition. Differences between treatments were analyzed for their statistical significance by one-way ANOVA with post hoc Tukey's testing.
With RYA [compound 3222, 3-mer MNTF peptide], the “MN survival (% Ctrl)” value came out at 10.64 ± 1.72 % Ctrl.

“RYAR [compound 2311, 4-mer MNTF peptide, metabolite of the 6mer]”: the “MN survival (% Ctrl)” value turned out to be 9.66 ± 2.50 % Ctrl.

Regarding “SRYA [compound 3223, 4-mer MNTF peptide]”, the “MN survival (% Ctrl)” value is given as 15.46 ± 1.82 % Ctrl.

Consider “SRYAR [compound 2312, 5-mer MNTF peptide, metabolite of the 6mer]”, for which the “MN survival (% Ctrl)” value came out at 12.02 ± 2.31 % Ctrl.

On to SRY [compound 3221, 3-mer MNTF peptide], for which the “MN survival (% Ctrl)” value was 9.08 ± 2.32 % Ctrl.

Regarding “FSR [compound 2307, 3-mer MNTF peptide, metabolite of the 6mer]”, the “MN survival (% Ctrl)” value came out at 35.00 ± 5.28 % Ctrl.

Turning to “FSRY [compound 2308, 4-mer MNTF peptide, metabolite of the 6mer]”, the “MN survival (% Ctrl)” value is recorded as 66.38 ± 5.86 % Ctrl.

For the substance “FSRYA [compound 2309, 5-mer MNTF peptide, metabolite of the 6mer]”, the “MN survival (% Ctrl)” value amounted to 81.5 ± 4.50 % Ctrl.

On to “YAR [compound 2310, 3-mer MNTF peptide, metabolite of the 6mer]”, for which the “MN survival (% Ctrl)” value came to 12.26 ± 1.70 % Ctrl.

For “FSRYAR [GM6(GMP014), synthesized 6 amino acid peptide analog of MNTF]”, the “MN survival (% Ctrl)” value is 94.02 ± 3.53 % Ctrl.

The test is the same for the next values; noted with them: 10 μg/ml, culture medium lacking the conventional NTFs.
Turning to “FSRYAR [GM6(GMP014), synthesized 6 amino acid peptide analog of MNTF]”, the “trophic effect on motor neuron cell death (in words)” value is “demonstrated protection from neuronal cell loss”.

The test is the same for the next values; noted with them: 10 μg/ml, culture medium lacking the conventional NTFs; listed as GM6.
Turning to “FSRYAR [GM6(GMP014), synthesized 6 amino acid peptide analog of MNTF]”, the “trophic effect on motor neuron cell death (in words)” value is “demonstrated an attenuation of motor neuron cell death”.

(Values after patent US8846615B2, “MNTF peptides” (Genervon Biopharmaceuticals, LLC, priority 2008, dated 2014).)
